The record followed here is PubChem BioAssay (NCI).

What all share (assay): NCI anticancer screen, dose series, 48 h
The subject of assay [1] is 786-0 renal.
For assay [2], the system named is CCRF-CEM leukemia.
Assay [3] has as its system COLO 205 colon.
For assay [4], the system named is HOP-62 NSCLC.
The test system of assay [5] is NCI-H460 lung.
In assay [6] the test system is RPMI-8226 leukemia.
Assay [7] has as its system TK-10 renal.
The subject of assay [8] is UACC-62 melanoma.
The test system of assay [9] is UACC-257 melanoma.

Structures are written as SMILES. “And” between values parts separate entries of the source, which are not always exact repeats. Equal values may be shown once.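 Each compound was tested at five concentrations against cells in 96-well plates for 48 hours. The concentration for 50% growth inhibition is given as GI50. TGI marks complete inhibition of growth.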

Consider `CC(=O)N/C(=C\c1ccc(/C=C(\NC(C)=O)c2nc3ccc(Cl)cc3[nH]2)cc1)c1nc2ccccc2[nH]1`, for which the TGI in [1], in assay [2], in assay [3], in [4], in assay [5] and in assay [6] was more than 100 µM throughout. The TGI in assay [7] and in assay [8] was more than 100 µM each time.

As to `CCN(CC)CCC1CC/C(=C\c2ccc(OC)cc2)C1=O` (stereo not drawn), the TGI is more than 100 µM in [1]; more than 100 µM in [2]; 38.9 µM in assay [3]; more than 100 µM in assay [4]; more than 100 µM in assay [6]; more than 100 µM in assay [7]. Besides, the TGI was 77.6 µM in [9] and 34.7 µM in assay [8].

As for `CC(=O)OCC1OC(n2c(-c3ccccc3)cc(-c3ccco3)c(C#N)c2=O)C(OC(C)=O)C(OC(C)=O)C1OC(C)=O` (stereo not drawn), the TGI was more than 100 µM in [1]; more than 100 µM in [2]; more than 100 µM in assay [3]; > 100 µM and 65.4 µM in assay [4]; more than 100 µM in [5]; more than 100 µM in assay [6]. Further, the TGI in [7], in assay [9] and in [8] was more than 100 µM throughout. The GI50 was > 31.6 µM and 87 µM in assay [3]; > 100 µM and 22.1 µM in assay [4]; 23.3 µM and 55.8 µM in assay [8].

As to `COC1=CC23C=CC1[C@@H](c1ccccc1)C2=C(C)C(=O)N3C(=O)NC1CCCCC1` (stereo partly drawn), the TGI in assay [1] is 32.4 µM; in assay [2] it was 72.5 µM; in assay [4], 50.2 µM; in assay [5], 42.2 µM; in [7], 84.3 µM; in [9], 77.4 µM. Further, in [8], the TGI came out at 47.6 µM.

For the compound `CC1(C)C(=O)N(c2ccccc2)C(=O)N1c1nc2ccccc2[nH]1`, the TGI in assay [1], in assay [2], in assay [3], in [4], in assay [5] and in assay [6] was more than 100 µM each time. Moreover, the TGI in assay [7], in assay [9] and in assay [8] was more than 100 µM in each case.

Regarding `COC(=O)c1c(-c2ccccc2)cc2c3cc(-c4ccccc4)c(C(=O)OC)n3c3ccccc3n12`, the TGI in [1], in assay [2], in [3], in assay [4], in assay [5] and in assay [6] was more than 100 µM each time. Further, the TGI in assay [7], in assay [9] and in [8] was more than 100 µM in each case.

On to `CC(=O)NC(CCCCNC(=O)OCc1ccccc1)C(=O)NCc1ccccc1` (stereo not drawn), for which the TGI in [1], in assay [2], in assay [3], in assay [4], in [5] and in [6] was more than 100 µM each time. In addition, the TGI in assay [7], in assay [9] and in [8] was more than 100 µM throughout.

In the case of `COc1ccc(-c2c(C3=NCCN3)nnn2-c2ccccc2)cc1`, the TGI in assay [1], in assay [2], in [3], in assay [4], in [5] and in [6] was more than 100 µM throughout. For the same compound, the TGI in [7], in assay [9] and in assay [8] was more than 100 µM in each case.

Turning to `Cc1cc2nc3c(C(OC4OC(CO)C(O)C(O)C4O)C(O)CO)nn(-c4ccccc4)c3nc2cc1C` (stereo not drawn), the TGI in assay [1], in assay [2], in [4], in assay [5], in assay [6] and in [7] was more than 100 µM in each case. The TGI in assay [9] and in [8] was more than 100 µM each time.

`CC1=C2C(O)C(C(C)CO)C(O)CC2(C)C(O)CC1` (stereo not drawn): the TGI in assay [1], in [2], in [3], in assay [4], in assay [5] and in assay [6] was more than 100 µM in each case. The TGI in [7], in assay [9] and in assay [8] was more than 100 µM throughout.

In the case of `C=CCNC(=S)N1CC(C)C(=O)Nc2ccccc21` (stereo not drawn), the TGI in [1], in assay [2], in assay [3], in assay [4], in assay [5] and in assay [6] was more than 100 µM each time. The TGI in assay [7] and in [8] was more than 100 µM throughout.

As to `CC(=O)O[C@H]1C(N(C)C(=O)c2ccccc2)CC[C@]2(C)C3CC[C@@]4(C)C(CC(O)[C@@H]4C(C)N(C)C)[C@@H]3CCC12` (stereo partly drawn), the TGI in [1], in assay [2], in assay [3], in [4], in assay [5] and in assay [6] was more than 100 µM each time. For the same compound, the TGI in assay [7], in [9] and in assay [8] was more than 100 µM each time.

On to `CCN(CC)CCCCC1CCN(CC(=O)N2CC(C)C(=O)Nc3ccccc32)CC1` (stereo not drawn), for which the TGI in assay [1], in [2], in [3], in assay [4], in assay [5] and in [6] was more than 100 µM throughout. Moreover, the TGI in [9] and in [8] was more than 100 µM in each case.

For the compound `CCOc1ccccc1NC(=O)/C=C1\NC(=O)CS1`, the TGI in assay [1], in assay [2], in assay [3], in assay [4], in [5] and in assay [6] was more than 100 µM throughout. The TGI in [7] and in assay [8] was more than 100 µM in each case.

As for `CN1CCN(CCSC2Cc3cc(Cl)ccc3Sc3ccccc32)CC1` (stereo not drawn), the TGI was determined as 9.11 µM in [1]; 3.26 µM in [3]; 26.7 µM in assay [4]; 16.1 µM in assay [5]; 5.34 µM in [6]; 9.67 µM in [7]. The TGI in assay [9] came to 4.38 µM; in assay [8], 3.63 µM.

Regarding `O=C1C(Br)=C[C@H]2C3C=CC(Br)(C3=O)[C@@H]12` (stereo partly drawn), the TGI is 48.2 µM in assay [1]; 13.7 µM in assay [2]; 21.4 µM in assay [3]; 92.5 µM in assay [4]; more than 100 µM in assay [6]; 24.8 µM in assay [9]. In addition, the TGI in assay [8] amounted to 14.9 µM.

`N#CCCc1nc2ccc(Br)cc2c(=O)n1CCO`: the TGI in assay [1], in [2], in [3], in assay [4], in assay [6] and in assay [7] was more than 100 µM throughout. The TGI in assay [9] and in assay [8] was more than 100 µM each time.

`C=CCc1cc2cccc(OC)c2oc1=O`: the TGI in [1], in assay [2], in assay [3], in assay [4], in assay [5] and in assay [6] was more than 100 µM each time. Further, the TGI in assay [7], in [9] and in assay [8] was more than 100 µM each time.

Take `CCC(=O)c1cn(C)c(=O)c2ccccc12`: the TGI in [1], in [2], in assay [3], in assay [4], in assay [5] and in assay [6] was more than 100 µM throughout. The TGI in [7], in assay [9] and in [8] was more than 100 µM each time.

`CC(=O)O/N=C/c1ncccc1CO`: the TGI in assay [1], in assay [2], in [3], in [4], in assay [5] and in [7] was more than 100 µM throughout. In addition, the TGI in assay [9] and in assay [8] was more than 100 µM throughout.

In the case of `O=[N+]([O-])c1c(/C=N/Nc2ccccc2)oc(-c2ccc3c(c2)OCO3)c1-c1ccc2c(c1)OCO2`, the TGI in assay [1] is more than 100 µM; in [3], more than 100 µM; in assay [4], more than 100 µM; in assay [6], 24.2 µM; in assay [7], more than 100 µM; in assay [9], more than 100 µM. In addition, the TGI in [8] is more than 100 µM.

On to `CCN(CC)c1ccc(N=Nc2ccc(-c3nc4cccnc4o3)cc2)cc1`, for which the TGI in [1], in [2], in assay [3], in assay [4], in assay [6] and in assay [7] was more than 100 µM in each case. For the same compound, the TGI in assay [9] and in assay [8] was more than 100 µM in each case.

In the case of `COc1cc(C2c3cc4c(cc3[C@@H](Nc3ccc(C(=O)O)cc3)C3COC(=O)[C@H]23)OCO4)cc(OC)c1O` (stereo partly drawn), the GI50 in assay [1] was 12.3 µM and 3.07 µM; in assay [3], 26.8 µM and 12.9 µM; in assay [6], 5.7 µM and 2.71 µM. The TGI in [1] was 35 µM and > 17.5 µM; in assay [2] it was 15.1 µM and 8.82 µM; in assay [3], more than 100 µM; in assay [4] it was 33.9 µM and > 17.5 µM; in [5] it was 17.6 µM and > 17.5 µM; in assay [6] it was 30.2 µM and 6.54 µM. Besides, the TGI was more than 100 µM in [7]; more than 100 µM in assay [9]; 28.2 µM and > 17.5 µM in assay [8].

For `Nc1ccc(C(=O)N/C(=C\C=C\c2ccco2)c2nc3[nH]c(=S)[nH]c(=O)c3[nH]2)cc1`, the TGI in assay [1], in assay [2], in assay [3] and in assay [7] was more than 100 µM throughout.

Take `Cc1cc2nc3c(=O)n(C)c(=O)nc-3n(-c3ccc(Cl)cc3)c2cc1C`: the TGI in assay [1] is 43.3 µM; in assay [2], 45.4 µM; in [3], 9.76 µM; in assay [4], 65.1 µM; in assay [5], 10.6 µM; in [6] it was 26.4 µM. Also, the TGI in [7] stood at 92 µM; in assay [9], 20 µM; in assay [8], 10.6 µM.

In the case of `O=C(Nc1ccccc1)c1ccc(Cl)c([N+](=O)[O-])c1`, the TGI in assay [1] is 20.8 µM; in [2], 28.7 µM; in assay [3] it was 70 µM; in assay [4], more than 100 µM; in [5], 98.9 µM; in [6] it was 37.6 µM. Besides, the results for the TGI in assay [7], in assay [9] and in assay [8] were more than 100 µM, 48.4 µM and 24.9 µM, respectively.

`O=C(C(O)c1cn(Cc2ccccc2)c2ccccc12)N1CCCCC1` (stereo not drawn): the TGI in assay [1] was more than 100 µM; in [2], more than 100 µM; in assay [3], more than 100 µM; in [4] it was more than 100 µM; in assay [6], more than 100 µM; in assay [7] it was more than 10 µM. In addition, the TGI in assay [9] and in assay [8] was more than 100 µM each time.

As to `CCOC(=O)CCC(=O)C1c2cccc(O)c2C(=O)c2c(O)cccc21`, the TGI is 3.26 µM in assay [1]; 3.68 µM in assay [2]; 3.95 µM in assay [3]; 3.8 µM in [4]; 1.4 µM in [5]; 4.76 µM in [7]. Moreover, the TGI in [9] is 3.3 µM; in assay [8], 1.42 µM.

Regarding `N#CC(C#N)=C(N)/C(C#N)=C\c1ccnc2ccccc12`, the TGI in [1] was 37.2 µM; in [2], 10.3 µM; in assay [3], more than 100 µM; in [4], 56.5 µM; in assay [5] it was more than 100 µM; in assay [7], more than 100 µM. Further, the figures for the TGI in assay [9] and in assay [8] were 58.6 µM and 38.9 µM, respectively.

In the case of `c1cnc2c(c1)-n1cccc1C1(CCSCC1)NN2`, the TGI in [1], in assay [2], in assay [3], in assay [4], in assay [5] and in [6] was more than 100 µM throughout. Also, the TGI in assay [7] and in assay [9] was more than 100 µM throughout.

Take `CCCC(=O)c1c(NOC2OC(COC(C)=O)C(OC(C)=O)C(OC(C)=O)C2OC(C)=O)nc(OC)n(C)c1=O` (stereo not drawn): the TGI in assay [1], in assay [2], in [3], in [4], in assay [5] and in assay [7] was more than 100 µM in each case. The TGI in [8] was more than 100 µM.
